# Earlier results as cited in patent US11426350B1, “Reducing the environmental impact of farming using biochar” (Carbon Technology Holdings, LLC, priority 2014, dated 2022).
# System: E. coli O157:H7
substance,measurement,value
Lactobacillus rhamnosus GG,E. coli O157:H7-induced lesions in Caco-2 cells,prevent
